Data set [1] in a line: Toxicity in Swiss mouse infected with multidrug-resistant Plasmodium yoelii nigeriensis assessed as animal dead at 12 mg/kg, IM for 4 days measured on day 28. The settings on record: in vivo, 96 h, time 4 day. The data set is classed as organism-based.
Data set [2] deals with Plasmodium yoelii nigeriensis. Kind of data set: Antimalarial activity against multidrug-resistant Plasmodium yoelii nigeriensis infected in Swiss mouse assessed as inhibition of parasitemia at 24 mg/kg, po for 4 days measured on day 4 relative to control. The settings on record: 96 h, time 4 day. The data set is classed as functional.
Data set [3] deals with Plasmodium yoelii nigeriensis. Kind of data set: Antimalarial activity against multidrug-resistant Plasmodium yoelii nigeriensis infected in Swiss mouse assessed as inhibition of parasitemia at 12 mg/kg, IM for 4 days measured on day 4 relative to control. The data set is classed as functional. Particulars: 96 h, time 4 day.
Data set [4] in a line: Toxicity in Swiss mouse infected with multidrug-resistant Plasmodium yoelii nigeriensis assessed as animal survival at 12 mg/kg, IM for 4 days measured on day 28. The data set is classed as organism-based. Particulars: in vivo, time 4 day; for survival at 96 h: Swiss, read-out: Activity.
The nature of data set [5]: Toxicity in Swiss mouse infected with multidrug-resistant Plasmodium yoelii nigeriensis assessed as animal survival at 24 mg/kg, IM for 4 days measured on day 28. The data set is classed as organism-based. Particulars: in vivo, time 4 day, read-out: Activity.
Data set [6] in a line: Toxicity in Swiss mouse infected with multidrug-resistant Plasmodium yoelii nigeriensis assessed as animal survival at 24 mg/kg, po for 4 days measured on day 28. The data set is classed as organism-based. Particulars: in vivo, time 4 day; for Activity: po, 24 mg/kg, 96 h.
Data set [7] deals with Plasmodium yoelii nigeriensis. Kind of data set: Antimalarial activity against multidrug-resistant Plasmodium yoelii nigeriensis infected in Swiss mouse assessed as inhibition of parasitemia at 12 mg/kg, po for 4 days measured on day 4 relative to control. The settings on record: 96 h, time 4 day. The data set is classed as functional.
Data set [8] can be described thus: Toxicity in Swiss mouse infected with multidrug-resistant Plasmodium yoelii nigeriensis assessed as animal dead at 12 mg/kg, po for 4 days measured on day 28. The settings on record: in vivo, 96 h, time 4 day. The data set is classed as organism-based.
Data set [9] is described as follows: Toxicity in Swiss mouse infected with multidrug-resistant Plasmodium yoelii nigeriensis assessed as animal dead at 3 mg/kg, IM for 4 days measured on day 28. The data set is classed as organism-based. Particulars: in vivo, 96 h, time 4 day.
Data set [10] can be described thus: Toxicity in Swiss mouse infected with multidrug-resistant Plasmodium yoelii nigeriensis assessed as animal survival at 12 mg/kg, po for 4 days measured on day 28. The settings on record: in vivo, 96 h, time 4 day. The data set is classed as organism-based.
The subject of data set [11] is Plasmodium yoelii nigeriensis. Kind of data set: Antimalarial activity against multidrug-resistant Plasmodium yoelii nigeriensis infected in Swiss mouse assessed as inhibition of parasitemia at 6 mg/kg, po for 4 days measured on day 4 relative to control. The data set is classed as functional. The settings on record: 96 h, time 4 day.
For data set [12], the system named is Plasmodium yoelii nigeriensis. The data set is described as follows: Antimalarial activity against multidrug-resistant Plasmodium yoelii nigeriensis infected in Swiss mouse assessed as inhibition of parasitemia at 3 mg/kg, IM for 4 days measured on day 4 relative to control. The data set is classed as functional. The settings on record: 96 h, time 4 day.
A short description of data set [13]: Toxicity in Swiss mouse infected with multidrug-resistant Plasmodium yoelii nigeriensis assessed as animal survival at 6 mg/kg, IM for 4 days measured on day 28. The data set is classed as organism-based. The settings on record: in vivo, time 4 day.
The nature of data set [14]: Toxicity in Swiss mouse infected with multidrug-resistant Plasmodium yoelii nigeriensis assessed as animal dead at 6 mg/kg, po for 4 days measured on day 28. Particulars: in vivo, 96 h, time 4 day. The data set is classed as organism-based.
In data set [15] the test system is Plasmodium yoelii nigeriensis. Kind of data set: Antimalarial activity against multidrug-resistant Plasmodium yoelii nigeriensis infected in Swiss mouse assessed as inhibition of parasitemia at 6 mg/kg, IM for 4 days measured on day 4 relative to control. The data set is classed as functional. The settings on record: 96 h, time 4 day.
Data set [16] is described as follows: Toxicity in Swiss mouse infected with multidrug-resistant Plasmodium yoelii nigeriensis assessed as animal dead at 24 mg/kg, po for 4 days measured on day 28. The data set is classed as organism-based. The settings on record: in vivo, 96 h, time 4 day.
Data set [17] is described as follows: Toxicity in Swiss mouse infected with multidrug-resistant Plasmodium yoelii nigeriensis assessed as animal survival at 48 mg/kg, IM for 4 days measured on day 28. The data set is classed as organism-based. The settings on record: in vivo, 96 h, time 4 day.
The subject of data set [18] is Plasmodium yoelii nigeriensis. The data set is described as follows: Antimalarial activity against multidrug-resistant Plasmodium yoelii nigeriensis infected in Swiss mouse assessed as inhibition of parasitemia at 48 mg/kg, po for 4 days measured on day 4 relative to control. The data set is classed as functional. Particulars: 96 h, time 4 day.
The nature of data set [19]: Toxicity in Swiss mouse infected with multidrug-resistant Plasmodium yoelii nigeriensis assessed as animal dead at 48 mg/kg, po for 4 days measured on day 28. The data set is classed as organism-based. Particulars: in vivo, 96 h, time 4 day.
The test system of data set [20] is Plasmodium yoelii nigeriensis. The data set is described as follows: Antimalarial activity against multidrug-resistant Plasmodium yoelii nigeriensis infected in Swiss mouse assessed as inhibition of parasitemia at 24 mg/kg, IM for 4 days measured on day 4 relative to control. The data set is classed as functional. The settings on record: 96 h, time 4 day.
Data set [21] relates to Plasmodium yoelii nigeriensis. The data set is described as follows: Antimalarial activity against multidrug-resistant Plasmodium yoelii nigeriensis infected in Swiss mouse assessed as inhibition of parasitemia at 48 mg/kg, IM for 4 days measured on day 4 relative to control. The settings on record: 96 h, time 4 day. The data set is classed as functional.

SMILES strings stand for the structures.

From ChEMBL document CHEMBL5131426, “Novel hydrazone derivatives of N-amino-11-azaartemisinin with high order of antimalarial activity against multidrug-resistant Plasmodium yoelii nigeriensis in Swiss mice via intramuscular route” (Bioorg Med Chem Lett, 2022) come the findings set out here.

As a reminder, the inhibition in vivo is the relative decrease from the control value, in per cent. `C[C@@H]1CC[C@H]2[C@@H](C)C(=O)N(N)[C@@H]3O[C@@]4(C)CC[C@@H]1[C@@]23OO4`: the Activity result in data set [1] is “Toxic”. In data set [2], the inhibition in vivo at 24 mg/kg is 100%. Also, in data set [3], the inhibition in vivo at 12 mg/kg is 100%.
On to `C[C@@H]1CC[C@H]2[C@@H](C)C(=O)N(/N=C/c3ccccc3O)[C@@H]3O[C@@]4(C)CC[C@@H]1[C@@]23OO4`, for which the survival at 96 h in data set [4] worked out at 40%. Besides, in data set [2], the inhibition in vivo at 24 mg/kg is 100%. The inhibition in vivo at 12 mg/kg in data set [3] was found to be 100%.
Take `C[C@@H]1CC[C@H]2[C@@H](C)C(=O)N(N=C3C4CC5CC(C4)CC3C5)[C@@H]3O[C@@]4(C)CC[C@@H]1[C@@]23OO4`: the survival at 96 h in data set [4] turned out to be 20%. For the same compound, the inhibition in vivo at 24 mg/kg in [2] is 100%. Besides, the inhibition in vivo at 12 mg/kg in data set [3] stood at 100%.
For `C[C@@H]1CC[C@H]2[C@@H](C)C(=O)N(/N=C/c3ccc[nH]3)[C@@H]3O[C@@]4(C)CC[C@@H]1[C@@]23OO4`, the survival at 96 h in [5] came out at 40%. The inhibition in vivo at 24 mg/kg in data set [2] stood at 100%. In addition, the inhibition in vivo at 12 mg/kg in [3] is 100%.
For the compound `CC(C)=NN1C(=O)[C@H](C)[C@@H]2CC[C@@H](C)[C@@H]3CC[C@@]4(C)OO[C@]32[C@H]1O4`, the inhibition in vivo at 24 mg/kg in [2] turned out to be 100%. Further, the inhibition in vivo at 12 mg/kg in data set [3] worked out at 100%.
For `C[C@@H]1CC[C@H]2[C@@H](C)C(=O)N(/N=C/c3ccc(Br)cc3)[C@@H]3O[C@@]4(C)CC[C@@H]1[C@@]23OO4`, the survival at 96 h in data set [4] was 60%. For the same compound, the inhibition in vivo at 24 mg/kg in [2] was found to be 100%. Moreover, in [3], the inhibition in vivo at 12 mg/kg was determined as 100%.
As for `C[C@@H]1CC[C@H]2[C@@H](C)C(=O)N(N=C3CCCCC3)[C@@H]3O[C@@]4(C)CC[C@@H]1[C@@]23OO4`, the survival at 96 h in data set [4] turned out to be 40%. Besides, the inhibition in vivo at 24 mg/kg in data set [2] stood at 100%. In data set [3], the inhibition in vivo at 12 mg/kg was determined as 100%.
Consider `C[C@@H]1CC[C@H]2[C@@H](C)C(=O)N(/N=C/c3ccco3)[C@@H]3O[C@@]4(C)CC[C@@H]1[C@@]23OO4`, for which the survival at 96 h came out at 80% in [4] and 80% in [6] (Swiss, read-out: Activity). In addition, the inhibition in vivo at 24 mg/kg in data set [2] came to 100%. Also, the inhibition in vivo at 12 mg/kg in data set [3] came out at 100%.
On to `COc1ccc(/C=N/N2C(=O)[C@H](C)[C@@H]3CC[C@@H](C)[C@@H]4CC[C@@]5(C)OO[C@]43[C@H]2O5)cc1`, for which the inhibition in vivo at 12 mg/kg in data set [7] and in [3] was 100% throughout. Also, the Activity result in data set [8] is reported as “Toxic”; in [6] it was “Non-Toxic”. In addition, the survival at 96 h in data set [4] turned out to be 60%. Moreover, the inhibition in vivo at 24 mg/kg in data set [2] amounted to 100%.
On to `C[C@@H]1CC[C@H]2[C@@H](C)C(=O)N(/N=C/c3cccs3)[C@@H]3O[C@@]4(C)CC[C@@H]1[C@@]23OO4`, for which the inhibition in vivo at 12 mg/kg in [7] and in data set [3] was 100% throughout. The inhibition in vivo at 24 mg/kg in data set [2] is 100%.
`C[C@@H]1CC[C@H]2[C@@H](C)C(=O)N(N=C3c4ccccc4-c4ccccc43)[C@@H]3O[C@@]4(C)CC[C@@H]1[C@@]23OO4`: the inhibition in vivo at 12 mg/kg in [7] and in [3] was 100% each time. Besides, the Activity entry in data set [9] is recorded as “Toxic”; in data set [10], “Non-Toxic”; in data set [4] (im, 12 mg/kg, 96 h), “Non-Toxic”; in data set [13] (im, 6 mg/kg, 96 h), “Non-Toxic”; in [6] it was “Non-Toxic”; in data set [14], “Toxic”. Further, in [11], the inhibition in vivo at 6 mg/kg is 98%. In addition, the inhibition in vivo at 3 mg/kg in [12] turned out to be 38%. In addition, the inhibition in vivo at 24 mg/kg in [2] amounted to 100%.
Turning to `C[C@@H]1CC[C@H]2[C@@H](C)C(=O)N(/N=C/c3cccc([N+](=O)[O-])c3)[C@@H]3O[C@@]4(C)CC[C@@H]1[C@@]23OO4`, in data set [1], the Activity result was “Toxic”. The inhibition in vivo at 24 mg/kg in [2] stood at 100%. Further, the inhibition in vivo at 12 mg/kg in [3] amounted to 100%.
As to `C[C@@H]1CC[C@H]2[C@@H](C)C(=O)N(N=C3CCCC3)[C@@H]3O[C@@]4(C)CC[C@@H]1[C@@]23OO4`, the inhibition in vivo at 6 mg/kg in data set [15] stood at 100%. The inhibition in vivo at 24 mg/kg in [2] amounted to 100%. In addition, in data set [13] (Swiss, read-out: Activity), the survival at 96 h was determined as 80%. For the same compound, the inhibition in vivo at 12 mg/kg in [3] turned out to be 100%. Further, the Activity entry in data set [6] is “Non-Toxic”; in data set [16] it was “Toxic”.
Consider `C[C@@H]1CC[C@H]2[C@@H](C)C(=O)O[C@@H]3O[C@@]4(C)CC[C@@H]1[C@]32OO4` [ARTEMISININ], for which the values for the Activity result in data set [17] and in data set [19] were “Non-Toxic” and “Toxic”, respectively. The inhibition in vivo at 48 mg/kg in data set [18] and in [21] was 100% throughout. The inhibition in vivo at 24 mg/kg in [20] amounted to 100%.
